In patent publication US20100274022A1, “G PROTEIN-COUPLED RECEPTOR INHIBITOR AND PHARMACEUTICAL PRODUCT” (PHARMAFRONTIER CO., LTD., priority 2007, published 2010):

Biological target: T1, humanGPR120 (Homo sapiens, UniProt Q5NUL3)
T1 construct: expressed in transfected cells
T1 sequence (Q5NUL3 1-377 isoform Q5NUL3-1 R67C/Q274H/I297T): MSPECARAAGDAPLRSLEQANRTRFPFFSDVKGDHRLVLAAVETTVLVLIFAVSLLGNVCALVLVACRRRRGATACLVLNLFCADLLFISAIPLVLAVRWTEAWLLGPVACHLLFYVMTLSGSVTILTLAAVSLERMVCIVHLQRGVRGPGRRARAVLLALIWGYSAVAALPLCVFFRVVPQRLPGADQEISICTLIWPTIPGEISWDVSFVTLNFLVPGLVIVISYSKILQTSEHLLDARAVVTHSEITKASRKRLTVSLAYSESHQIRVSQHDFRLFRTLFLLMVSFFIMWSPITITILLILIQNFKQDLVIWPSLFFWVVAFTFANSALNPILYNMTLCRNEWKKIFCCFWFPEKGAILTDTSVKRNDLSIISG
Test: Inhibitory effect on activation (antagonistic activity): α-LA-stimulated increase in intracellular Ca2+ concentration measured by FLIPR in cells comprising GPR120
Format: cell-based

## (E)-3-{3-[2-(2-nonylpyridinylamino)ethoxy]phenyl}acrylic acid [ATG-19]
  antagonistic activity for GPR120 (result in words): significant antagonistic activity
